The structures appear in SMILES notation. Read-outs that look alike come from different tables or passages of the source.

17 molecules from US20250011319A1, “SUBSTITUTED 1H-PYRAZOLO [4,3-c] QUINOLINES, METHODS OF PREPARATION, AND USE THEREOF” (Lomond Therapeutics, Inc., priority 2021, published 2025) can be followed below.

Series [1] relates to MOLM-13. Put plainly: MOLM-13 Cytotoxicity Assay. In kind it is cell-based. Particulars: Homo sapiens. As to the method:
Example C. MOLM-13 Cytotoxicity Assay. Assay was performed according the procedure described in O. A. Elgamal et al. J. Hematol. Oncol. 2020, 13, 8 (https://doi.org/10.1186/s13045-019-0821-7).

The subject of series [2] is MV4-11 cell lines. Nature of the series: MV4-11 Cytotoxicity Assay (CellTiter-Glo). It is filed as cell-based. The conditions noted are these: Homo sapiens, read-out: MV4-11, CC50. On the procedure:
Example B. MV4-11 Cytotoxicity Assay. CC50 was determined using MV4-11 cell lines in RPMI-1640 culture medium (PanEco cat #C363). Compounds were prepared as 200× stocks with serial dilution in 100% DMSO with a final concentration of 1×. Dispersed 40 μL in 384-well plates at a concentration of 4000 cells per well using a robotic station Biomek (Beckman). Before adding compounds, the cells were incubated at 37° C. A dilution plate was prepared by pouring 78 μl of the appropriate culture medium using a robotic station Biomek (Beckman). Sequentially, using a robotic station, 2 μl of substances were taken and added to 78 μl of culture medium (dilution of compounds 40×). Took from there 10 μl and added to the plates to the cells (dilution of compounds 5×). The plates were incubated for 3 days at a temperature 37° C. After 3 days, 10 μl of CellTiter-Glo (Promega) was added to the cells and the luminescence was measured.

For series [3], the target named is recombinant HPK1 protein (Homo sapiens (Human), UniProt Q92918). Nature of the series: Primary HPK1 enzymatic inhibition (ADP-Glo luminescence). It is filed as biochemical. Particulars: recombinant HPK1, MBP substrate, 1 hour at room temperature. As to the method: Example A. Primary Assay used to determine potency of HPK1 enzymatic activity inhibition. Compound activity was determined using recombinant HPK1 protein and MBP Substrate (both Promega, Cat #V6398) in an in vitro enzymatic reaction. The enzymatic assay used to determine activity was a Luminescence assay using a Microplate Reader ClarioStar Plus. The enzymatic reaction was carried out in assay buffer (40 mM TRIS-HCl pH 7.4-7.6, 20 mM MgCl2, 0.05 mM DTT, 0.1 mg/ml BSA). The compounds were dispensed on a 384 well Diamond Well Plate (Axigen, Cat #P-384-120SQ-C—S) using the Biomek FX liquid handling system at 100× solutions of compounds in DMSO. 2×HPK1-MBP mix (final concentration 0.64 ng/μl of HPK1 and 45 ng/μl of MBP) was prepared in 1× Assay buffer and 5.5 μl of mixture per well was added into 384 w white Reaction plate with NBS (Corning, Cat #4513). 5.5 μl of MBP substrate w/o HPK1 in 1× buffer was used for negative control. Plates were centrifuged for 1 min at 100 g. Next step the Compounds were added to Reaction plate using Biomek station via following steps: 1l of 100× compounds (in DMSO) were mixed thoroughly with 49 ul of 2×10 uM ATP in Assay Buffer, then 5.5 μl of this mixture was added to Reaction plate with 5.5 μl of HPK1-MBP mix. Plates were centrifuged for 1 min at 100 g and incubated for 1 hour at room temperature. Next 3 μL of ADP-Glo reagent (Promega, ADP-Glo™ Kinase Assay, Cat #V9102) per well was added. Plates were incubated for 30 minutes at room temperature. Then 6 μL of Kinase detection reagent (Promega, ADP-Glo™ Kinase Assay, Cat #V9102) per well was added and the Luminescence was measured using Microplate Reader. The % inhibition was then used to calculate the IC50 values.
(In ADP-Glo the light output rises with the ADP produced.)

The nature of series [4]: HEK293 cytotoxicity. It is filed as cell-based. The conditions noted are these: human, HEK293 cells. On the procedure:
(§1) Example D. FLT3 inhibitory activity and cytotoxicity. This assay was used to determine potency of FLT3 enzymatic activity inhibition. Corresponding biochemical inhibition of enzymatic activities of FLT3 (wt), FLT3 (D835Y), and FLT3 (ITD) were measured using recombinant protein constructs of kinase domains via activity based FLT3 kinase assay for compound screening and profiling via radiometric HotSpot™ kinase assay (Reaction Biology). Peptide substrate [[…]]. Compounds were dissolved to 10 mM in DMSO. Compounds were tested in 10-dose IC50 mode with a 3-fold serial dilution starting at 0.3 μM. […] Reactions were carried out at 1 μM ATP. The estimated Ki values were calculated by using the formula presented below, which is applicable for ATP competitive inhibitors: Ki=IC50/(1+[S]/Km). […] In Table E shown HEK293 cytotoxicity.

Series [5] has as its target FLT3 (ITD) (Homo sapiens, UniProt P36888, ITD). Put plainly: FLT3 kinase radiometric HotSpot assay, FLT3 (ITD). In kind it is biochemical.
For series [6], the target named is FLT3 (D835Y) (Homo sapiens (Human), UniProt P36888, D835Y). Put plainly: FLT3 kinase radiometric HotSpot assay, FLT3 (D835Y). It is filed as biochemical. On the procedure:
as §1

Series [7] concerns the target FLT3 (wt) (Homo sapiens (Human), UniProt P36888). Nature of the series: FLT3 kinase radiometric HotSpot assay, FLT3 (wt). In kind it is biochemical. On the procedure:
as §1

Where [8] appears, read: MOLM-13 cells, read-out: MOLM-13, CC50.
[9] abbreviates: 72 h, MV4-11 cells, 3 days, CellTiter-Glo.

recombinant HPK1 protein, sequence (Q92918 whole entry): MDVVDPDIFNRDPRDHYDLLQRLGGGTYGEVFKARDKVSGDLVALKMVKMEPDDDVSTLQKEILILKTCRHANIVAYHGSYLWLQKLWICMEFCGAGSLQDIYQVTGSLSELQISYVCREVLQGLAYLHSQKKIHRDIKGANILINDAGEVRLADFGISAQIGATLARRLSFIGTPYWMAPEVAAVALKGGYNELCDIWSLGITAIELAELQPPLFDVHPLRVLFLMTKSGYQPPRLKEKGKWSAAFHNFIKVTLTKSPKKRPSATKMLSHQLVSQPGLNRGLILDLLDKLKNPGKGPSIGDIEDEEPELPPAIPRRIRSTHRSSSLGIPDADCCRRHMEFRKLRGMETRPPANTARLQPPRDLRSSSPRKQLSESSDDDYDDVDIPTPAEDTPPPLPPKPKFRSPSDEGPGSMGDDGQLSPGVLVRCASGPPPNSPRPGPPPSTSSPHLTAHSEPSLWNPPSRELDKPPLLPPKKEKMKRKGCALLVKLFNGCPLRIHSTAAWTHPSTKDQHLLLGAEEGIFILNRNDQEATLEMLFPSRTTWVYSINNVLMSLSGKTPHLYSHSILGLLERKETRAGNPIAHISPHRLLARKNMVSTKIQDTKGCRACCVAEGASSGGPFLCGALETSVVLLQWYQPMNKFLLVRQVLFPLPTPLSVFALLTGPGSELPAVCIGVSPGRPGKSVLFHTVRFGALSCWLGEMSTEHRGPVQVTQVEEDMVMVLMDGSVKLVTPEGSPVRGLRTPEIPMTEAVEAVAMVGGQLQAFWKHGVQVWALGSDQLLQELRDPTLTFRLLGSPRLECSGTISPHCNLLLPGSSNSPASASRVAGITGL

As to `COc1ccc2ncc3c(-c4cccc(N5CCC(N(C)C)CC5)c4)nn(-c4ccc(C)c(C)c4)c3c2c1` [Compound 1.1, 1-{3-[1-(3,4-dimethylphenyl)-8-methoxy-1H-pyrazolo[4,3-c]quinolin-3-yl]phenyl}-N,N-dimethylpiperidin-4-amine], the results for the half-maximal cytotoxic concentration (CC50) in series [1] (setting [8]) and in series [2] (setting [9]) were 1000 to 5000 nM and over 500 nM, respectively. In addition, in series [3], the Ki is 10 to 20 nM.
In the same order, the values of `COc1ccc2ncc3c(-c4cccc(N5CCN(C)CC5)c4)nn(-c4ccc(C)c(C)c4)c3c2c1` [Compound 1.3, 1-{3-[1-(3,4-dimethylphenyl)-8-methoxy-1H-pyrazolo[4,3-c]quinolin-3-yl]phenyl}-4-methylpiperazine] are over 5000 nM, 100 to 500 nM and 10 to 20 nM.
Regarding `COc1ccc2ncc3c(-c4cccc(N5CCC(N(C)C)CC5)c4)nn(-c4cccc(C)c4C)c3c2c1` [Compound 1.14, 1-{3-[1-(2,3-dimethylphenyl)-8-methoxy-1H-pyrazolo[4,3-c]quinolin-3-yl]phenyl}-N,N-dimethylpiperidin-4-amine], in series [2] (setting [9]), the CC50 is over 500 nM. Besides, the Ki in series [3] was under 10 nM.
Regarding `COc1ccc2ncc3c(-c4ccc(N5CCN(C)CC5)cc4)nn(-c4ccc(C)c(C)c4)c3c2c1` [Compound 1.16, 1-{4-[1-(3,4-dimethylphenyl)-8-methoxy-1H-pyrazolo[4,3-c]quinolin-3-yl]phenyl}-4-methylpiperazine], the 50% cytotoxic concentration (CC50) in series [1] (setting [8]) was under 500 nM; in series [2] (setting [9]), 50 to 100 nM. The Ki in series [3] lay within 10 to 20 nM.
In the case of `COc1ccc2ncc3c(-c4ccc(N5CCC(N(C)C)CC5)cc4)nn(-c4ccc(C)c(C)c4)c3c2c1` [Compound 1.17, 1-{4-[1-(3,4-dimethylphenyl)-8-methoxy-1H-pyrazolo[4,3-c]quinolin-3-yl]phenyl}-N,N-dimethylpiperidin-4-amine], the CC50 in series [2] (setting [9]) fell in the range of 50 to 100 nM. In addition, the Ki in series [3] lay within 10 to 20 nM.
For `COc1ccc2ncc3c(-c4ccc(N(C)CCCN(C)C)cc4)nn(-c4ccc(C)c(C)c4)c3c2c1` [Compound 1.18, N-[3-(dimethylamino)propyl]-4-[1-(3,4-dimethylphenyl)-8-methoxy-1H-pyrazolo[4,3-c]quinolin-3-yl]-N-methylaniline], the results for the CC50 in series [1] (setting [8]) and in series [2] (setting [9]) were over 5000 nM and 100 to 500 nM, respectively. Moreover, the Ki in series [3] lay within 20 to 50 nM.
The corresponding values for `Cc1ccc(-n2nc(-c3ccc(N4CCN(C)CC4)cc3)c3cnc4ccccc4c32)cc1C` [Compound 1.21, 1-{4-[1-(3,4-dimethylphenyl)-1H-pyrazolo[4,3-c]quinolin-3-yl]phenyl}-4-methylpiperazine] are 1000 to 5000 nM, 100 to 500 nM and at least 50 nM.
The corresponding values for `Cc1ccc(-n2nc(-c3ccc(N4CCNCC4)cc3)c3cnc4ccccc4c32)cc1C` [Compound 1.22, 1-{4-[1-(3,4-dimethylphenyl)-1H-pyrazolo[4,3-c]quinolin-3-yl]phenyl}piperazine] are 1000 to 5000 nM, 100 to 500 nM and at least 50 nM.
Take `COc1ccc2ncc3c(-c4ccc(OCCN(C)C)c(OC)c4)nn(-c4ccc(C)c(C)c4)c3c2c1` [Compound 1.24, (2-{4-[1-(3,4-dimethylphenyl)-8-methoxy-1H-pyrazolo[4,3-c]quinolin-3-yl]-2-methoxyphenoxy}ethyl)dimethylamine]: the half-maximal cytotoxic concentration (CC50) in series [1] (MOLM-13, read-out: MOLM-13, CC50) was under 500 nM; in series [2] (MV4-11, 72 h), under 50 nM. The Ki in series [3] is 10 to 20 nM.
For `COc1ccc2ncc3c(-c4ccc(OCCN5CCOCC5)c(OC)c4)nn(-c4ccc(C)c(C)c4)c3c2c1` [Compound 1.25, 4-(2-{4-[1-(3,4-dimethylphenyl)-8-methoxy-1H-pyrazolo[4,3-c]quinolin-3-yl]-2-methoxyphenoxy}ethyl)morpholine], the CC50 in series [1] (setting [8]) was in the range of 1000 to 5000 nM; in series [2] (setting [9]) it was 100 to 500 nM. Also, the Ki in series [3] lay within 20 to 50 nM.
Regarding `COc1ccc2ncc3c(-c4ccc(OCCCN5CCOCC5)c(OC)c4)nn(-c4ccc(C)c(C)c4)c3c2c1` [Compound 1.26, 4-(3-{4-[1-(3,4-dimethylphenyl)-8-methoxy-1H-pyrazolo[4,3-c]quinolin-3-yl]-2-methoxyphenoxy}propyl)morpholine], the 50% cytotoxic concentration (CC50) in series [1] (setting [8]) fell in the range of 500 to 1000 nM; in series [2] (setting [9]) it was 50 to 100 nM. Besides, in series [3], the inhibition constant Ki fell in the range of 20 to 50 nM.
Regarding `COc1ccc(-c2nn(-c3ccc4c(c3)CNCC4)c3c2cnc2ccccc23)cc1OC` [Compound 1.31, 7-[3-(3,4-dimethoxyphenyl)-1H-pyrazolo[4,3-c]quinolin-1-yl]-1,2,3,4-tetrahydroisoquinoline], the 50% cytotoxic concentration (CC50) in series [4] is under 10000 nM. Besides, the Ki in series [5] was 0.5 to 2 nM; in series [6], under 0.5 nM; in series [7], under 0.5 nM.
Consider `COc1ccc(-c2nn(-c3ccc4c(c3)CCNC4)c3c2cnc2ccccc23)cc1OC` [Compound 1.32, 6-[3-(3,4-dimethoxyphenyl)-1H-pyrazolo[4,3-c]quinolin-1-yl]-1,2,3,4-tetrahydroisoquinoline], for which, in series [4], the CC50 was 10000 to 50000 nM. Besides, the Ki in series [5] is over 5 nM; in series [6], 0.5 to 2 nM; in series [7] it was 0.5 to 2 nM.
Regarding `COc1ccc(-c2nn(-c3ccc4c(c3)CNC4)c3c2cnc2ccccc23)cc1OC` [Compound 1.33, 5-[3-(3,4-dimethoxyphenyl)-1H-pyrazolo[4,3-c]quinolin-1-yl]-2,3-dihydro-1H-isoindole], the CC50 in series [4] was at least 50000 nM. The inhibition constant (Ki) in series [5] is 2 to 5 nM; in series [6] it was under 0.5 nM; in series [7], 0.5 to 2 nM.
With `COc1ccc2ncc3c(-c4ccc(OC)c(OC)c4)nn(-c4ccc5c(c4)CNCC5)c3c2c1` [Compound 1.34, 7-[3-(3,4-dimethoxyphenyl)-8-methoxy-1H-pyrazolo[4,3-c]quinolin-1-yl]-1,2,3,4-tetrahydroisoquinoline], the Ki was under 0.5 nM in series [5] (read-out: Ki, nM FLT3 (ITD)); under 0.5 nM in series [6]; under 0.5 nM in series [7].
As for `COc1ccc2ncc3c(-c4ccc(OC)c(OC)c4)nn(-c4ccc5c(c4)CCNC5)c3c2c1` [Compound 1.35, 6-[3-(3,4-dimethoxyphenyl)-8-methoxy-1H-pyrazolo[4,3-c]quinolin-1-yl]-1,2,3,4-tetrahydroisoquinoline], in series [4], the half-maximal cytotoxic concentration (CC50) was under 10000 nM. Besides, the inhibition constant Ki was 0.5 to 2 nM in series [5] (read-out: Ki, nM FLT3 (ITD)); under 0.5 nM in series [6]; under 10 nM in series [3]; under 0.5 nM in series [7].
`COc1ccc2ncc3c(-c4ccc(OC)c(OC)c4)nn(-c4ccc5c(c4)CNC5)c3c2c1` [Compound 1.36, 5-[3-(3,4-dimethoxyphenyl)-8-methoxy-1H-pyrazolo[4,3-c]quinolin-1-yl]-2,3-dihydro-1H-isoindole] showed a CC50 in series [4] of under 10000 nM. Also, the inhibitory constant (Ki) was 0.5 to 2 nM in series [5] (read-out: Ki, nM FLT3 (ITD)); under 0.5 nM in series [6]; under 10 nM in series [3]; under 0.5 nM in series [7].

In general, CC50 refers to the concentration that lowers cell viability or growth by half. One may read the Ki as the equilibrium dissociation constant of an inhibitor or competing ligand from its target.
